For this assay, the target named is T1, interaction between biotinylated human S100A9 and human RAGE-Fc (Homo sapiens, UniProt P06702).
T1 construct: made in house; host or cells: E. coli BL21(DE3)/pET1120 (pLR757)
T1 sequence (P06702 1-114): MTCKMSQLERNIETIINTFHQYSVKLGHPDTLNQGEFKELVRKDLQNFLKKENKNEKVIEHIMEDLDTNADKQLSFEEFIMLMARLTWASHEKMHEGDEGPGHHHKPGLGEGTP
The assay is described as follows: AlphaScreen inhibition assay, Biot-hS100A9:hRAGE-Fc (S100A9-RAGE inhibition assay). Type of assay: binding. The conditions noted are these: biot-hS100A9 and rhRAGE-Fc, Ca2+ and Zn2+ in buffer. Summed up:
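Biotinylated human S100A9, in HBS-P with CaCl2 and ZnCl2, preincubated 1 h at room temperature in the dark with compound (final DMSO ≤1.25%), then combined with rhRAGE-Fc on protein A Acceptor beads plus streptavidin Donor beads (20 μg/mL each). Protein levels batch-dependent; percent inhibition from AlphaScreen signal vs DMSO-only control.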

SMILES strings stand for the structures.

Broadly, the IC50 is the concentration needed to halve the response being measured. For the compound `O=C(NC1(C(F)(F)F)C(=O)Nc2nc3cc(Cl)c(Cl)cc3n21)C1CCCCC1` (stereo not shown) [Example 55, N-[10,11-dichloro-4-oxo-3-(trifluoromethyl)-2,5,7-triazatricyclo[6.4.0.0^2,6]dodeca-1(12),6,8,10-tetraen-3-yl]cyclohexanecarboxamide], the IC50 came out at 1.7 µM.

Consider `COc1ccc(-c2cccc3c2nc2n3C(NC(=O)CCC3CCCC3)(C(F)(F)F)C(=O)N2)cc1` (single isomer, unassigned) [Example 230a, 3-cyclopentyl-N-[9-(4-methoxyphenyl)-4-oxo-3-(trifluoromethyl)-2,5,7-triazatricyclo[6.4.0.0^2,6]dodeca-1(12),6,8,10-tetraen-3-yl]propanamide], for which the IC50 worked out at 0.26 µM. As for `O=C(NC1(C(F)(F)F)C(=O)Nc2nc3cc(Cl)c(Cl)cc3n21)[C@@H]1CCN(S(=O)(=O)C2CCCC2)C1` (stereo partly drawn) [Example 51, (3R)-1-(cyclopentanesulfonyl)-N-[10,11-dichloro-4-oxo-3-(trifluoromethyl)-2,5,7-triaza-tricyclo[6.4.0.0^2,6]dodeca-1(12),6,8,10-tetraen-3-yl]pyrrolidine-3-carboxamide], the IC50 turned out to be 1.2 µM.

Regarding `Cc1cc2nc3n(c2cc1C)C(NC(=O)CCc1c(Cl)cccc1Cl)(C(F)(F)F)C(=O)N3` (stereo not shown) [Example 29, 3-(2,6-dichlorophenyl)-N-[10,11-dimethyl-4-oxo-3-(trifluoromethyl)-2,5,7-triaza-tricyclo[6.4.0.0^2,6]dodeca-1(8),6,9,11-tetraen-3-yl]propanamide], the IC50 was found to be 5.4 µM. As to `O=C(CCC1CCCC1)NC1(C(F)(F)F)C(=O)Nc2nc3c(-c4nnn[nH]4)cccc3n21` (stereo not shown) [Example 199, 3-cyclopentyl-N-[4-oxo-9-(1H-1,2,3,4-tetrazol-5-yl)-3-(trifluoromethyl)-2,5,7-triazatricyclo[6.4.0.0^2,6]dodeca-1(12),6,8,10-tetraen-3-yl]propanamide], the IC50 stood at 0.92 µM. On to `Cc1cc2nc3n(c2cc1C)C(NC(=O)c1ccc(-c2ccccc2)cc1)(C(F)(F)F)C(=O)N3` (stereo not shown) [Example 18, N-[10,11-dimethyl-4-oxo-3-(trifluoromethyl)-2,5,7-triazatricyclo[6.4.0.0^2,6]dodeca-1(8),6,9,11-tetraen-3-yl]-4-phenylbenzamide], for which the IC50 worked out at 2 µM. On to `O=C(CCC1CCCC1)NC1(C(F)(F)F)C(=O)Nc2nc3c(C(=O)O)cc(Cl)cc3n21` (stereo not shown) [Example 233, 11-chloro-3-(3-cyclopentylpropanamido)-4-oxo-3-(trifluoromethyl)-2,5,7-triazatricyclo[6.4.0.0^2,6]dodeca-1(12),6,8,10-tetraene-9-carboxylic acid], for which the IC50 was determined as 0.49 µM. In the case of `O=C(NC1(C(F)(F)F)C(=O)Nc2nc3cc(Cl)c(Cl)cc3n21)C1CNC1` (stereo not shown) [Example 47, N-[10,11-dichloro-4-oxo-3-(trifluoromethyl)-2,5,7-triazatricyclo[6.4.0.0^2,6]dodeca-1(12),6,8,10-tetraen-3-yl]azetidine-3-carboxamide], the IC50 turned out to be 3.9 µM.

For `Cc1cc2nc3n(c2cc1C)C(NC(=O)CCCC1CCCC1)(C(F)(F)F)C(=O)N3` (stereo not shown) [Example 19, 4-cyclopentyl-N-[10,11-dimethyl-4-oxo-3-(trifluoromethyl)-2,5,7-triazatricyclo-[6.4.0.0^2,6]dodeca-1(8),6,9,11-tetraen-3-yl]butanamide], the IC50 came to 0.4 µM. The same measure for `Cc1cc2nc3n(c2cc1C)C(NC(=O)[C@@H]1CCCN1S(C)(=O)=O)(C(F)(F)F)C(=O)N3` (single isomer, unassigned) [Example 89]: 5.9 µM; for `Cc1cc2nc3n(c2cc1C)C(NC(=O)[C@@H](O)c1ccccc1)(C(F)(F)F)C(=O)N3` (single isomer, unassigned) [Example 146a]: 5.39 µM. As for `CC(=O)c1cccc2c1nc1n2C(NC(=O)CCC2CCCC2)(C(F)(F)F)C(=O)N1` (single isomer, unassigned) [Example 224a, N-[9-acetyl-4-oxo-3-(trifluoromethyl)-2,5,7-triazatricyclo[6.4.0.0^2,6]dodeca-1(12),6,8,10-tetraen-3-yl]-3-cyclopentylpropanamide], the IC50 was found to be 0.88 µM. The same measure for `O=C(NC1(C(F)(F)F)C(=O)Nc2nc3cc(Cl)c(Cl)cc3n21)c1cccc(NC2CCCCC2)n1` (stereo not shown) [Example 66, 6-(cyclohexylamino)-N-[10,11-dichloro-4-oxo-3-(trifluoromethyl)-2,5,7-triazatricyclo-[6.4.0.0^2,6]dodeca-1(12),6,8,10-tetraen-3-yl]pyridine-2-carboxamide]: 0.4 µM. For the compound `O=C(CCC1CCCC1)NC1(C(F)(F)F)C(=O)Nc2nc3c(C(=O)O)cccc3n21` (stereo not shown) [Example 160, 3-(3-cyclopentylpropanamido)-4-oxo-3-(trifluoromethyl)-2,5,7-triazatricyclo[6.4.0.0^2,6]dodeca-1(12),6,8,10-tetraene-9-carboxylic acid], the IC50 turned out to be 0.74 µM.

As to `O=C(CCC1CCCC1)NC1(C(F)(F)F)C(=O)Nc2nc3c(C(=O)O)cccc3n21` (single isomer, unassigned) [Example 231b, 3-(3-cyclopentylpropanamido)-4-oxo-3-(trifluoromethyl)-2,5,7-triazatricyclo[6.4.0.0^2,6]dodeca-1(12),6,8,10-tetraene-9-carboxylic acid], the half-maximal inhibitory concentration (IC50) is 0.84 µM. On to `Cc1cc2nc3n(c2cc1C)C(NC(=O)[C@@H](C)Oc1cccc(Cl)c1)(C(F)(F)F)C(=O)N3` (single isomer, unassigned) [Example 212b], for which the IC50 amounted to 4.58 µM. Turning to `Cc1ccc(-c2cccc3c2nc2n3C(NC(=O)CCC3CCCC3)(C(F)(F)F)C(=O)N2)cc1` (stereo not shown) [Example 202, 3-cyclopentyl-N-[9-(4-methylphenyl)-4-oxo-3-(trifluoromethyl)-2,5,7-triazatricyclo[6.4.0.0^2,6]dodeca-1(12),6,8,10-tetraen-3-yl]propanamide], the IC50 worked out at 0.7 µM. The same measure for `COCC(=O)N1CCC(C(=O)NC2(C(F)(F)F)C(=O)Nc3nc4cc(Cl)c(Cl)cc4n32)CC1` (stereo not shown) [Example 44, N-[10,11-dichloro-4-oxo-3-(trifluoromethyl)-2,5,7-triazatricyclo[6.4.0.0^2,6]dodeca-1(12),6,8,10-tetraen-3-yl]-1-(2-methoxyacetyl)piperidine-4-carboxamide]: 4.7 µM; for `O=C(NC1(C(F)(F)F)C(=O)Nc2nc3cc(Cl)c(Cl)cc3n21)C1CCN(C(=O)C2CCCC2)C1` (racemic) [Example 50, (rac).1-cyclopentanecarbonyl-N-[10,11-dichloro-4-oxo-3-(trifluoromethyl)-2,5,7-triaza-tricyclo[6.4.0.0^2,6]dodeca-1(12),6,8,10-tetraen-3-yl]pyrrolidine-3-carboxamide]: 2.3 µM. `O=C(CCC1CCCC1)NC1(C(F)(F)F)C(=O)Nc2nc3c(Cl)c(Cl)ccc3n21` (stereo not shown) [Example 83, 3-cyclopentyl-N-[9,10-dichloro-4-oxo-3-(trifluoromethyl)-2,5,7-triazatricyclo[6.4.0.0^2,6]-dodeca-1(12),6,8,10-tetraen-3-yl]propanamide]: the IC50 is 0.6 µM. The same measure for `O=C(CC1CCCCC1)NC1(C(F)(F)F)C(=O)Nc2nc3cc(F)c(F)cc3n21` (stereo not shown) [Example 74, 2-cyclohexyl-N-[10,11-difluoro-4-oxo-3-(trifluoromethyl)-2,5,7-triazatricyclo[6.4.0.0^2,6]-dodeca-1(8),6,9,11-tetraen-3-yl]acetamide]: 3.6 µM; for `CCCC(=O)NC1(C(F)(F)F)C(=O)Nc2nc3c(-c4ccc(OC)cc4)cccc3n21` (stereo not shown) [Example 234, N-[9-(4-methoxyphenyl)-4-oxo-3-(trifluoromethyl)-2,5,7-triazatricyclo[6.4.0.0^2,6]dodeca-1(12),6,8,10-tetraen-3-yl]butanamide]: 0.92 µM; for `Cc1cc2nc3n(c2cc1C)C(NC(=O)CCC1CCCC1)(C(F)(F)F)C(=O)N3` (single isomer, unassigned) [Example 218b, 3-cyclopentyl-N-[10,11-dimethyl-4-oxo-3-(trifluoromethyl)-2,5,7-triazatricyclo[6.4.0.0^2,6]dodeca-1(12),6,8,10-tetraen-3-yl]propanamide]: 0.73 µM. Turning to `Cc1cc2nc3n(c2cc1C)C(NC(=O)c1ccc(Cl)nc1)(C(F)(F)F)C(=O)N3` (stereo not shown) [Example 28, 6-chloro-N-[10,11-dimethyl-4-oxo-3-(trifluoromethyl)-2,5,7-triazatricyclo[6.4.0.0^2,6]-dodeca-1(12),6,8,10-tetraen-3-yl]pyridine-3-carboxamide], the IC50 was determined as 3.7 µM. The same measure for `O=C(NC1(C(F)(F)F)C(=O)Nc2nc3ccccc3n21)c1cc(Cl)cc(Cl)c1` (stereo not shown) [Example 12, 3,5-dichloro-N-[4-oxo-3-(trifluoromethyl)-2,5,7-triazatricyclo[6.4.0.0^2,6]dodeca-1(12),6,8,10-tetraen-3-yl]benzamide]: 3 µM; for `O=C(NC1(C(F)(F)F)C(=O)Nc2nc3cc(Cl)c(Cl)cc3n21)c1cccc(Cl)c1` (stereo not shown) [Example 56, 3-chloro-N-[10,11-dichloro-4-oxo-3-(trifluoromethyl)-2,5,7-triazatricyclo[6.4.0.0^2,6]-dodeca-1(12),6,8,10-tetraen-3-yl]benzamide]: 1.4 µM; for `CC(=O)c1cc(Cl)cc2c1nc1n2C(NC(=O)CCC2CCCC2)(C(F)(F)F)C(=O)N1` (stereo not shown) [Example 182, N-[9-acetyl-11-chloro-4-oxo-3-(trifluoromethyl)-2,5,7-triazatricyclo[6.4.0.0^2,6]dodeca-1(12),6,8,10-tetraen-3-yl]-3-cyclopentylpropanamide]: 1.12 µM. The value for `N#Cc1cccc(C(=O)NC2(C(F)(F)F)C(=O)Nc3nc4cc(Cl)c(Cl)cc4n32)c1` (stereo not shown) [Example 100, 3-cyano-N-[10,11-dichloro-4-oxo-3-(trifluoromethyl)-2,5,7-triazatricyclo[6.4.0.0^2,6]dodeca-1(8),6,9,11-tetraen-3-yl]benzamide] was 2.02 µM.

Source of the values: US9771372B2, “Compounds useful as S100-inhibitors” (Active Biotech AB, priority 2014, dated 2017).
